Patent publication US20140142180A1, “METHODS OF TREATING TUMORS HAVING ELEVATED MCT1 EXPRESSION” (Whitehead Institute for Biomedical Research, priority 2012, published 2014)

Key:
GAPDH = GAPDH (Homo sapiens, UniProt P04406); conditions: covalent bond with active-site cysteine; cited from earlier work
MCT1 [1] = target: T1, MCT1 (Homo sapiens, UniProt P53985); experiment: 14C-3-BrPA uptake assay, wild type KBM7 cells; assay type: cell-based; conditions: wild type KBM7 in HBSS, up to 20 minutes, unlabeled competitor
T1 construct: endogenous in cells; host or cells: wild type KBM7 cells (near-haploid human cell line)
T1 sequence (P53985 1-500): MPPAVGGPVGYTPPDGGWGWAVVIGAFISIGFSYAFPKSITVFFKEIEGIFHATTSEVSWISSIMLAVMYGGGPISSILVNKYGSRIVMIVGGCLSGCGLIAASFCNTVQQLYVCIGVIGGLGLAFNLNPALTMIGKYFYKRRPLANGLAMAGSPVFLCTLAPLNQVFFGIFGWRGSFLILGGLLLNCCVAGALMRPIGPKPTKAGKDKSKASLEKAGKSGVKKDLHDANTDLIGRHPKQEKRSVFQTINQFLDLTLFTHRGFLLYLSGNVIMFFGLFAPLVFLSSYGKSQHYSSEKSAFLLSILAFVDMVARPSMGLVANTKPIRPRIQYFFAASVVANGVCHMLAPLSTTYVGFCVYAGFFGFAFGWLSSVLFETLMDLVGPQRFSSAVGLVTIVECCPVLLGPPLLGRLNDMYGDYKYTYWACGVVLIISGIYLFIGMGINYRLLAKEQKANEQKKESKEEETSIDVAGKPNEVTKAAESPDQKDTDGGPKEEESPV
T1 sequence (P35613 140-385 partner limits assumed): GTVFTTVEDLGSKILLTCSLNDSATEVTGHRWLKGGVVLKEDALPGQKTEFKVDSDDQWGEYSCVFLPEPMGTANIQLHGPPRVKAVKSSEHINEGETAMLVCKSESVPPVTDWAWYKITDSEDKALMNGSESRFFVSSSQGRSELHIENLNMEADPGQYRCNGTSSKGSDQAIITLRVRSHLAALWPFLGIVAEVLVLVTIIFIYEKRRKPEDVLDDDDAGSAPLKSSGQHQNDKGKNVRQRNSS
Method: Wild type KBM7 or MCT1-null cells were seeded in HBSS and exposed for up to 20 minutes to 100 μM ^14C-labeled 3-BrPA (6.8 mCi/mmole) (Moravek) with or without competitor molecules like 3-BrPA, Pyruvate, L-Lactate and D-Lactate. Cells were washed with cold HBSS, lysed in a NaOH buffer, and uptake measured using a liquid scintillation counter.

MCT1 [2] = conditions: cited from earlier work

GAPDH, sequence (P04406 whole entry, species assumed): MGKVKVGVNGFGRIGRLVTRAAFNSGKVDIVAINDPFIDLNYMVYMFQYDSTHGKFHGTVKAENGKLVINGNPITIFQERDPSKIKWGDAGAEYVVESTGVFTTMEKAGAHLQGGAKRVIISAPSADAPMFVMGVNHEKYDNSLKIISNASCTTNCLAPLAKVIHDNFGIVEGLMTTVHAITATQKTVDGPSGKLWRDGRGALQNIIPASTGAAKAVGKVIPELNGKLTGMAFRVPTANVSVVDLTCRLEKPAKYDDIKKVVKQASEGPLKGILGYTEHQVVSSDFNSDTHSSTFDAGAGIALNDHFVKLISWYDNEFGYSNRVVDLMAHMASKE

## CC1=C[C@@]23C(COC(=O)C24CO4)C(C(=O)O)=CC3[C@@H]1C (some centres unmarked) [Pentalenolactone]
GAPDH
  inhibition of GAPDH: potently inhibit

## CC(C)C1CC[C@@]2(CO2)[C@H]2C(=O)OCC(C(=O)O)=C[C@H]12 (some centres unmarked) [koningic acid]
GAPDH
  inhibition of GAPDH: potently inhibit

## CC(O)C(=O)O (centres unmarked) [lactate]
MCT1 [1]
  competition with the uptake of radiolabeled 3-BrPA: to a lesser extent

## N#C/C(=C\c1ccc(O)cc1)C(=O)O [α-cyano-4-hydroxycinnamate (CHC), α-cyano-4-hydroxycinnamate]
MCT1 [2]; alone or in combination with radiotherapy in mice
  antitumor effect: potent antitumor affects
MCT1 [2]; mice
  toxicity: without exerting overt toxicity
